Measured values published in the supplement of paper PMC5579334.

Legend:
HS-PSS [1] = assay: drug sensitivity score (DSS, CellTiter-Glo viability, 72 h) (DSS (dimensionless)); higher = more sensitive; extreme values may be limits of the assay
Procedure, shortened: (§1)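 After seeding 750–1000 cells per well of MPNST cell lines or primary human Schwann cells into 384-well plates preprinted with each compound at five concentrations in 10-fold steps, plates were kept 72 h at 37 °C, 5% CO2. Viability was read as CellTiter-Glo ATP luminescence relative to vehicle and positive-control wells, with duplicates averaged where present. The data were fitted with four-parameter logistic models. Drug sensitivity score and relative IC50, censored at the top concentration, derive from the fits, and percent inhibition refers to the top concentration.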

HS-Sch-2 [2] = assay: as above
Procedure, shortened: as §1

YST-1 [3] = assay: as above
Procedure, shortened: as §1

HS-PSS [4] = assay: drug sensitivity score (DSS, CellTox-Green cytotoxicity, 72 h) (DSS (dimensionless)); higher = more cytotoxic; extreme values may be limits of the assay
Procedure, shortened: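 For 72 h at 37 °C, MPNST cell lines and primary human Schwann cells were exposed in 384-well plates to five 10-fold compound dilutions. CellTox-Green, added before seeding at a final 1:1000 dilution, gave fluorescence from DNA released by disrupted cells. Signals were scaled to vehicle and positive-control wells, cultures failing plate quality control were left out, and four-parameter logistic fits were applied. Relative IC50 and drug sensitivity score were derived from the fits, with IC50 censored at the top concentration.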

HS-PSS [5] = assay: % inhibition of CellTiter-Glo viability at highest tested concentration (72 h), relative to DMSO and benzethonium chloride controls; higher = more inhibition
Procedure, shortened: as §1

HS-Sch-2 [6] = assay: as above
Procedure, shortened: as §1

YST-1 [7] = assay: as above
Procedure, shortened: as §1

Row | Compound | drug sensitivity score (HS-PSS [1]) | drug sensitivity score (HS-Sch-2 [2]) | drug sensitivity score (YST-1 [3]) | drug sensitivity score (HS-PSS [4]) | % inhibition (HS-PSS [5]) [%] | % inhibition (HS-Sch-2 [6]) [%] | % inhibition (YST-1 [7]) [%]
1 | Cc1cc(-c2nc(-c3ccc(OC(F)(F)F)cc3)no2)nn1Cc1ccnc(N2CCN(C3CC3)CC2)c1 [BAY 87-2243] (max concentration tested 1000 nM) | 31.7 | 26.4 | 2.18 | 0 | 74.5 | 65.9 | 15.5
2 | Cc1cc(Nc2cc(N3CCN(C)CC3)nc(Sc3ccc(NC(=O)C4CC4)cc3)n2)n[nH]1 [Tozasertib] (max concentration tested 10000 nM) | 4.85 | 8.18 | 12.9 | 0 | 31.3 | 61.5 | 45.5
3 | Cc1cc(Nc2cc(N3CCN(C)CC3)nc(/C=C/c3ccccc3)n2)n[nH]1 [ENMD-2076] (max concentration tested 10000 nM) | 8.13 | 12.1 | 10.8 | 1.84 | 70.5 | 95.5 | 63.9
4 | Cc1cccc(CC(=O)N2CCc3c2ccc(-c2cn(C)c4ncnc(N)c24)c3F)n1 (max concentration tested 2500 nM) | 0.96 | 0.16 | 0.36 | 0 | 29.6 | 16.1 | 14.4
5 | CCc1c2c(nc3ccc(O)cc13)-c1cc3c(c(=O)n1C2)COC(=O)[C@]3(O)CC [SN-38] (max concentration tested 10000 nM) | 22.9 | 36.1 | 36.9 | 20.4 | 77.9 | 100 | 99.7
6 | O=C(NC1CCNCC1)c1n[nH]cc1NC(=O)c1c(Cl)cccc1Cl [AT7519] (max concentration tested 10000 nM) | 15.3 | 17.6 | 26 | 1.85 | 73.5 | 99.7 | 98.7
7 | C1=N/C2=N/c3ccc(OCCN4CCCC4)c(c3)COC/C=C/COCc3cccc(c3)C(=C1)N2 [Pacritinib] (max concentration tested 10000 nM) | 10.8 | 8.63 | 8.15 | 4.15 | 99.4 | 99.6 | 100
8 | CN(C)C1CCN(C(=O)c2ccc(NC(=O)Nc3ccc(-c4nc(N5CCOCC5)nc(N5CCOCC5)n4)cc3)cc2)CC1 [Gedatolisib] (max concentration tested 1000 nM) | 17.4 | 12 | 19.4 | 0 | 73.4 | 80.3 | 93.2
9 | CN(C)Cc1ccc(S(=O)(=O)n2ccc(/C=C/C(=O)NO)c2)cc1 [Resminostat] (max concentration tested 10000 nM) | 6.36 | 7.57 | 13.8 | 2.12 | 84.1 | 100 | 101
10 | Cn1cc(C2=Nc3cc(NC(=O)C(N)C4CCCCC4)cc4c3C2=CNNC4=O)cn1 (centres undefined) (max concentration tested 10000 nM) | 8.91 | 22.7 | 14.8 | 0 | 43.5 | 84.3 | 51.3
11 | Cc1cc(C(=O)NOCCO)c(Nc2ccc(I)cc2F)n(C)c1=O [AZD-8330] (max concentration tested 10000 nM) | 8.85 | 11.6 | 0 | 0 | 51.1 | 53.5 | 3.34
12 | CCN(CC)CCCC(C)Nc1c2ccc(Cl)cc2nc2ccc(OC)cc12 (centres undefined) [Mepacrine] (max concentration tested 50000 nM) | 18.5 | 18.5 | 17.3 | 18 | 101 | 101 | 101
13 | O=C1NC(=O)/C(=C/c2ccc3nccc(-c4ccncc4)c3c2)S1 (max concentration tested 10000 nM) | 2.69 | 1.71 | 9.37 | 0 | 49.6 | 37.8 | 86.6
14 | COc1cc2ncnc(Oc3cccc(NC(=O)Nc4cc(C(C)(C)C(F)(F)F)on4)c3)c2cc1OC (max concentration tested 10000 nM) | 0 | 0 | 0.17 | 0 | 3.34 | -3.7 | 3.62
15 | Cc1cc(Nc2ncc(Cl)c(Nc3ccccc3S(=O)(=O)C(C)C)n2)c(OC(C)C)cc1C1CCNCC1 [Ceritinib] (max concentration tested 2500 nM) | 10.6 | 1.13 | 8.09 | 0.17 | 64.5 | 30.9 | 82.3
16 | NC(=O)c1cccc2cn(-c3ccc(C4CCCNC4)cc3)nc12 (centres undefined) [Niraparib] (max concentration tested 10000 nM) | 4.28 | 2.37 | 7.91 | 0.21 | 50.4 | 26.4 | 54.5
17 | N[C@@H]1CCCN(c2c(/C=C3\SC(=O)NC3=O)cccc2-c2ccccc2)C1 [AZD1208] (max concentration tested 10000 nM) | 0 | 0 | 7.54 | 0 | -5.48 | -3.67 | 38.7
